Data taken from patent US4668397A, “Novel cyclic octapeptide, method for production of said octapeptide, and ion extracting/separating agent using said octapeptide as principal component” (Agency of Industrial Science & Technology, priority 1984, dated 1987).
Non-standard residues stand in square brackets, D forms with d. Residues, ends and D or L forms follow the SMILES beside them. *: point of attachment. Orn = NCCC[C@H](N)C(=O)O; Cbz = O=C(OCc1ccccc1)*; Boc = CC(C)(C)OC(=O)*; OBn = c1ccc(CO*)cc1; Sar = CNCC(=O)O

How the values were obtained:
[1] = Extraction equilibrium constant, chloroform / aqueous metal ion chloride and picric acid, absorbance of picrate anion; details: chloroform/water, pH 7.4, average of five concentrations
Protocol: The compound (C-1) of this invention obtained in Example 1 was dissolved in concentrations of […] in chloroform. Then 5-ml portions of each of the five solutions so prepared were mixed one each with 5-ml aqueous solutions (pH 7.4) of metallic ion chloride (10 mM), picric acid (25 mM), and good buffer HEPES (10 mM) and shaken for 30 minutes. The shaken mixtures were left stading for one hour. Then, based on the absorbance of picrate anion in the chloroform phase, the extraction equilibrium constants of the compound (C-1) of this invention for the various ions were determined. The results so obtained were compared with those of the comparative cyclic tetrapeptide, i.e. cyclo(glycyl-ε-benzyloxycarbonyl-L-lysyl-sarcosyl-L-prolyl) (D-1), and the linear octapeptide, i.e. tertiary butyloxycarbonylglycyl-ε-benzyloxycarbonyl-L-lysyl-sarcosyl-L-prolylglycyl-ε-benzyloxycarbonyl-[…]-L-proline methyl ester (E-1).
The results expressed as logarithms of the average values obtained by using the five chloroform solutions of varying concentration are shown in Table 1.

[2] = Ion transfer through chloroform phase between two water phases in a U-shaped tube; details: for Amount of ions transferred: K, 200 μM in chloroform phase, pH 7.5, 10 hours; for transferring ability for potassium ion: from Table 2
Protocol: (§1) In a U-shaped tube 15 mm in inside diameter, two water phases (a), (b) (each 10 ml) were separated by an intervening chloroform phase (15 ml). In the water phase (a), a chloride of potassium ions and calcium ions (10 mM), picric acid (25 mM), and good buffer HEPES (10 mM) were dissolved and adjusted to pH 7.5 with lithium hydroxide. In the chloroform phase, the compound of this invention was dissolved in a concentration of 200 μM. The two water phases (a), (b) were stirred with a mechanical stirrer and the chloroform phase was stirred with a magnetic stirrer. After 10 hours of stirring, the amount of potassium ions or calcium ions which had been transferred from the water phase (a) through the chloroform phase into the water phase (b) was determined based on the absorption of picrate anion. For comparison, the procedure described above was repeated by using a naturally occurring calcium-ion ionophore A 23187, the cyclic tetrapeptide, i.e. cyclo(glycyl-ε-benzyloxycarbonyl-L-lysyl-sarcosyl-L-prolyl) (D-1), the linear octapeptide, i.e. tertiary butyloxycarbonylglycyl-ε-benzyloxycarbonyl-L-lysyl-sarcosyl-L-propyl-glycyl-ε-benzyloxycarbonyl-L-lysyl-sarcosyl-L-proline methyl ester (E-1), and using no substance dissolved in the chloroform phase.

[3] = Ion transfer through chloroform phase (liquid membrane) between two water phases in a U-shaped tube; details: for Amount of ions transferred: Ca^2+, 200 μM in chloroform phase, pH 7.5, 10 hours; for transferring ability for calcium ion: from Table 2
Protocol: as §1

[4] = Solution extraction and recovery of calcium ion; details: 1 g compound in 100 ml chloroform; sample pH 6.9; back-extraction with 2M ammonium chloride and 2M hydrochloric acid
Protocol: (§2) The amount 100 ml of chloroform solution having dissolved therein 1 g of the compound (C-1) of this invention obtained in Example 1 and 100 ml of a sample solution containing 1 g of magnesium picrate and 100 mg of […] (adjusted to pH 6.9 with acetic acid and sodium acetate) were thoroughly shaken and then left standing for 30 minutes. From the resultant mixture, the chloroform phase was collected. The chloroform phase was washed with 100 ml of an aqueous solution containing 0.01M of lithium picrate (adjusted to pH 6.9 with acetic acid and sodium acetate), followed by collection of chloroform phase. This washing operation was repeated three times to collect the chloroform phase. This chloroform phase was thoroughly shaken with 100 ml of an aqueous solution containing 2M of ammonium chloride and 2M of hydrochloric acid. The shaken mixture was left standing at rest for 30 minutes, followed by collection of the aqueous phase. The aqueous phase was tested for recovery of calcium ion. […] At that time, the concentration of magnesium was 10^-3 times the initial concentration. Thus, by the method of solution extraction using the compound of this invention, calcium ions could be efficiently separated from a large amount of magnesium ions.

[5] = Solution extraction, separation from magnesium; details: after extraction and recovery of calcium ion; sample with 1 g magnesium picrate
Protocol: as §2

| SMILES | Logarithm of ion extraction equilibrium constant ([1]; Ba^2+) | Logarithm of ion extraction equilibrium constant ([1]; Ca^2+) | Logarithm of ion extraction equilibrium constant ([1]; K^+) | Logarithm of ion extraction equilibrium constant ([1]; Mg^2+) | Logarithm of ion extraction equilibrium constant ([1]; Na^+) | Logarithm of ion extraction equilibrium constant ([1]; Rb^+) | Amount of ions transferred [2] | Amount of ions transferred [3] | recovery ratio of calcium ion [4] | concentration of magnesium relative to the initial concentration [5] | transferring ability for potassium ion [2] | transferring ability for calcium ion [3] |
| --- | --- | --- | --- | --- | --- | --- | --- | --- | --- | --- | --- | --- |
| CN1CC(=O)N2CCC[C@H]2C(=O)NCC(=O)N[C@@H](CCCCNC(=O)OCc2ccccc2)C(=O)N(C)CC(=O)N2CCC[C@H]2C(=O)NCC(=O)N[C@@H](CCCCNC(=O)OCc2ccccc2)C1=O [Compound C-1, cyclo(glycyl-ε-benzyloxycarbonyl-L-lysyl-sarcosyl-L-prolyl)2] (cyclo(GK(Cbz)[Sar]PGK(Cbz)[Sar]P)) | 6.0 | 5.6 | 2.6 | 3.4 | 2.3 | 2.6 | 0.5 μ · mol | 5.4 μ · mol | 95% | 10^-3 times the initial concentration | – | – |
| CN1CC(=O)N2CCC[C@H]2C(=O)NCC(=O)N[C@@H](CCCNC(=O)OCc2ccccc2)C(=O)N(C)CC(=O)N2CCC[C@H]2C(=O)NCC(=O)N[C@@H](CCCNC(=O)OCc2ccccc2)C1=O [Compound C-2, cyclo(glycyl-δ-benzyloxycarbonyl-L-ornithyl-sarcosyl-L-prolyl)2] (cyclo(G[Orn](Cbz)[Sar]PG[Orn](Cbz)[Sar]P)) | – | – | – | – | – | – | 0.4 μ · mol | 5.1 μ · mol | – | – | – | – |
| COC(=O)[C@@H]1CCCN1C(=O)CN(C)C(=O)[C@H](CCCCNC(=O)OCc1ccccc1)NC(=O)CNC(=O)[C@@H]1CCCN1C(=O)CN(C)C(=O)[C@H](CCCCNC(=O)OCc1ccccc1)NC(=O)CNC(=O)OC(C)(C)C [Compound E-1, tertiary butyloxycarbonylglycyl-ε-benzyloxycarbonyl-L-lysyl-sarcosyl-L-propyl-glycyl-ε-benzyloxycarbonyl-L-lysyl-sarcosyl-L-proline methyl ester] (Boc-GK(Cbz)[Sar]PGK(Cbz)[Sar]P-OMe) | 1.3 | 1.1 | 0.9 | 0.9 | 0.9 | 0.9 | 0.2 μ · mol | 0.3 μ · mol | – | – | virtually no transferring ability | virtually no transferring ability |
| CN1CC(=O)N2CCC[C@H]2C(=O)NCC(=O)N[C@@H](CCCCNC(=O)OCc2ccccc2)C1=O [Compound D-1, cyclo(glycyl-ε-benzyloxycarbonyl-L-lysyl-sarcosyl-L-prolyl)] (cyclo(GK(Cbz)[Sar]P)) | 1.9 | 1.7 | 1.2 | 1.2 | 1.1 | 1.2 | 0.1 μ · mol | 0.4 μ · mol | – | – | virtually no transferring ability | virtually no transferring ability |
| CNc1ccc2oc(C[C@H]3O[C@@]4(CC[C@H]3C)O[C@H]([C@H](C)C(=O)c3ccc[nH]3)[C@H](C)C[C@H]4C)nc2c1C(=O)O [Compound A23187] | – | – | – | – | – | – | 0.1 μ · mol | 4.7 μ · mol | – | – | – | – |
| CN1CC(=O)N2CCC[C@H]2C(=O)NCC(=O)N[C@@H](CC(=O)OCc2ccccc2)C(=O)N(C)CC(=O)N2CCC[C@H]2C(=O)NCC(=O)N[C@@H](CC(=O)OCc2ccccc2)C1=O [Compound C-4, cyclo(glycyl-β-benzyl-L-aspartylsarcosyl-L-prolyl)2] (cyclo(D(OBn)[Sar]PGD(OBn)[Sar]PG)) | – | – | – | – | – | – | 0.3 μ · mol | 4.8 μ · mol | – | – | – | – |
| CN1CC(=O)N2CCC[C@H]2C(=O)NCC(=O)N[C@@H](CCC(=O)OCc2ccccc2)C(=O)N(C)CC(=O)N2CCC[C@H]2C(=O)NCC(=O)N[C@@H](CCC(=O)OCc2ccccc2)C1=O [Compound C-3, cyclo(glycyl-γ-benzyl-L-glutamylsarcosyl-L-prolyl)2] (cyclo(E(OBn)[Sar]PGE(OBn)[Sar]PG)) | – | – | – | – | – | – | 0.3 μ · mol | 4.9 μ · mol | – | – | – | – |
